Source: the NIST ThermoML archive (doi:10.1021/je400562z)
± gives the expanded uncertainty stated by the source.

Conditions: for surface tension liquid-gas: Ring tensiometer; for mass density / viscosity: 101.33 kPa, Liquid; for viscosity: Concentric cylinders viscometry

CN(CCO)CCO [N-methyldiethanolamine]
Conditions	mass density [kg/m3]	surface tension liquid-gas [mN/m]	viscosity [mPa·s]
303.15 K	1033.8 ± 1.5	37.33 ± 0.7	56.3 ± 1.3
313.15 K	1026.7 ± 1.5	–	34.45 ± 0.85
323.15 K	1018.9 ± 1.4	–	22.93 ± 0.55
333.15 K	–	35.47 ± 0.67	14.99 ± 0.37
